Measurements reported in US20180303776A1, “LIPOSOMAL REHYDRATION SALT FORMULATION FOR TREATMENT OF ALCOHOL RELATED DISORDERS” (EINSOF BIOHEALTH LIMITED, priority 2017, published 2018).

What was measured:
[1] = tested on: rats exposed to ethanol intoxication; assay: Elevated cross maze test during ethanol abstinence; assay type: in vivo
Procedure: Tests were conducted to determine the effects of repeated OEA administration on depressive and anxiety behavior during early ethanol abstinence. Animals were tested in the cross-raised labyrinth 24 hours and 12 days after the alcohol abuse protocol and forced swimming test was performed 48 hours after the last administration of ethanol. [HMGB1 (High Mobility Group Box 1): high mobility group 1 box; TLR4 (Toll-Like Receptors 4): Receptors type Toll 4: MD2 (Myeloid Differentiation Protein 2): myeloid differentiation protein 2; MyD88 (Myeloid Differentiation Factor 88): myeloid differentiation factor 88; NF-kB (Nuclear Farctor kB): nuclear transcription factor kappa B (p65 subunit); IkB: inhibitory protein IkappaB; TNF-α (Tumor Necrosis Factor α): tumor necrosis factor alpha; IL-1β (Interleukin β): 1interleukin-1 beta; MCP-1 (Monocyte Chemoattractant Protein 1): monocyte chemotactic protein 1; INOS (inducible Nitric Oxide Synthase): inducible nitric oxide synthase; COX-2 (Cyclooxygenase 2): cyclooxygenase 2; 4-HNE (4-hydroxynonenal): 4-hydroxynonenal]. […] The forced swimming test was performed on the rats two days after the last forced feed with ethanol and the specific behaviors were recorded with a digital video camera for 5 minutes. […]

[2] = tested on: caspase-3; assay: Caspase-3 expression and activity in frontal cortex; assay type: in vivo, rats; settings: OEA pretreatment
Procedure: (§1) There now follows examples of treatment of ethanol intoxication and using OEA as Example 10. Rats received an initial dose of 5 g/kg of 30% (w/v) ethanol via oral probe and a maximum of 3 g/kg of ethanol in subsequent doses every 8 hours. Blood was collected from the tail vein 2 hours before and 2 hours after 15:00 hours of ethanol administration by gavage on days 2 to 4 in order to determine blood ethanol levels (BEL), and treated of keeping toxic ethanol doses BEL relatively constant (see the table below). Mean ethanol/rat doses were 8 g/kg, 7.5 g/kg, 7.9 g/kg and 4.9 g/kg, day 1 to 4, respectively, and the mean ethanol/rat/day (1-4) was 7.06 g/kg. In a first experiment, the time-course of the neuro-inflammation was verified after 1 hour, 6 hours and 24 hours from the last feeding forced with ethanol. In the second experiment, OEA (5 mg/kg, ip, 10 mg/kg loading dose) was injected as pretreatment 10 min before each ethanol forced feed, and brain/blood tissue samples were collected 2-4 hours after the last administration of ethanol. […]
(§2) HMGB1 is a dangerous cytokine recruited by alcohol that activates the MyD88-dependent TLR4 immune signaling pathway, inducing the translocation of the p65 subunit of NF-kB to the nucleus and increasing its transcriptional activity. […] Lipid peroxidation, measured by the accumulation of 4-HNE, induces a redox cell state related to activation of caspase 3 and cell death by caspase-mediated apoptosis 8. […]
(§3) The western blot analysis was studied. […] Autoradiography was quantified by densitometry (NIH ImageJ® software, National Biosciences, Lincoln, Nebr. USA) and expressed as optical density (O.D.). […]
(§4) Real-time Polymerase Chain Reaction Analysis (RT-PCR) were studied. […] Quantitative changes in mRNA levels were estimated by RT-PCR, carried out in the presence of the SYBR green probe using a […] reaction in a Rotor-Gene (Corbett Research®, Mortlake, NSW, Australia).
Measurement of caspase-3 activity was studied. Caspase-3 activity was determined using a fluorometric assay kit (Abnova®, Taiwan) according to the manufacturer's protocol. […]

[3] = tested on: TLR4; assay: TLR4 mRNA and protein expression in frontal cortex after ethanol intoxication; assay type: in vivo, rats; settings: OEA pretreatment
Procedure: as §1, with “ethanol.” for “ethanol. In the second experiment, OEA (5 mg/kg, ip, 10 mg/kg loading dose) was injected as pretreatment 10 min before each ethanol forced feed, and brain/blood tissue samples were collected 2-4 hours after the last administration of ethanol.”
as §2, §3

[4] = tested on: p65 subunit of NF-kB; assay: NF-κB p65 expression and transcription factor activity in frontal cortex; assay type: in vivo, rats
Procedure: (§5) There now follows examples of treatment of ethanol intoxication and using OEA as Example 10. Rats received an initial dose of 5 g/kg of 30% (w/v) ethanol via oral probe and a maximum of 3 g/kg of ethanol in subsequent doses every 8 hours. Blood was collected from the tail vein 2 hours before and 2 hours after 15:00 hours of ethanol administration by gavage on days 2 to 4 in order to determine blood ethanol levels (BEL), and treated of keeping toxic ethanol doses BEL relatively constant (see the table below). Mean ethanol/rat doses were 8 g/kg, 7.5 g/kg, 7.9 g/kg and 4.9 g/kg, day 1 to 4, respectively, and the mean ethanol/rat/day (1-4) was 7.06 g/kg. […]
as §2
Real-time Polymerase Chain Reaction Analysis (RT-PCR) were studied. […] Quantitative changes in mRNA levels were estimated by RT-PCR, carried out in the presence of the SYBR green probe using a […] reaction in a Rotor-Gene (Corbett Research®, Mortlake, NSW, Australia). […]

[5] = tested on: IL-1β; assay: IL-1β in frontal cortex and plasma after ethanol intoxication; assay type: in vivo, rats; settings: OEA pretreatment
Procedure: as §1, §2, §4
(§6) Levels of HMGB1, pro-inflammatory cytokines (TNF-α, IL-1β) and chemokines MCP-1 were studied. Levels of HMGB1, TNF-α, IL-1β and soluble MCP-1 were determined by Enzyme-linked immunosorbent assay (ELISA) 30 (Elabscience Biotechnology Co., Ltd., China, for HMGB-1; RayBiotech®, GA, USA, for the TNF-α, IL-1β and MCP-1). The nuclear/cytosolic HMGB1 fraction was determined by Western blot analysis.

[6] = tested on: IκBα; assay: IκBα mRNA and protein expression in frontal cortex; assay type: in vivo, rats; settings: OEA pretreatment
Procedure: as §5, with “g/kg. In a first experiment, the time-course of the neuro-inflammation was verified after 1 hour, 6 hours and 24 hours from the last feeding forced with ethanol.” for “g/kg.”
as §2, §3

[7] = tested on: COX-2; assay: COX-2 mRNA expression in frontal cortex; assay type: in vivo, rats; settings: 2-4 hours after last ethanol administration, OEA pretreatment
Procedure: as §5, §2, §4

[8] = tested on: 4-HNE; assay: Lipid peroxidation (HNE adduct formation) in frontal cortex; assay type: in vivo, rats; settings: significant only in the animals treated with ethanol
Procedure: as §5, §2
Lipid peroxidation was studied. […] Levels of HNE protein adducts in cerebral cortex lysates were measured using a competitive 96-well OxySelect™ adduct HNE ELISA Kit (Cell Biolabs®, San Diego, Calif., US).

[9] = tested on: LPS; assay: Plasma LPS levels (intestinal permeability to endotoxins); assay type: in vivo, rats; settings: pretreated with OEA and receiving ethanol; ethanol alone approximately 80%
Procedure: (§7) There now follows examples of treatment of ethanol intoxication and using OEA as Example 10. Rats received an initial dose of 5 g/kg of 30% (w/v) ethanol via oral probe and a maximum of 3 g/kg of ethanol in subsequent doses every 8 hours. Blood was collected from the tail vein 2 hours before and 2 hours after 15:00 hours of ethanol administration by gavage on days 2 to 4 in order to determine blood ethanol levels (BEL), and treated of keeping toxic ethanol doses BEL relatively constant (see the table below). Mean ethanol/rat doses were 8 g/kg, 7.5 g/kg, 7.9 g/kg and 4.9 g/kg, day 1 to 4, respectively, and the mean ethanol/rat/day (1-4) was 7.06 g/kg. In a first experiment, the time-course of the neuro-inflammation was verified after 1 hour, 6 hours and 24 hours from the last feeding forced with ethanol. In the second experiment, OEA (5 mg/kg, ip, 10 mg/kg loading dose) was injected as pretreatment 10 min before each ethanol forced feed, and brain/blood tissue samples were collected 2-4 hours after the last administration of ethanol.
(§8) Experimental design, drug administration and tissue/plasma collection are now discussed. […]
(§9) Plasma levels of corticosterone and LPS were studied. Corticosterone and LPS were measured in plasma using commercially available kits by radioimmunOEAsay (RIA) (Coat-A-Count®, Siemens, La., USA) or colorimetric enzyme reaction (HyCult Biotech, Uden, respectively).

[10] = tested on: MD2; assay: MD2 protein expression in frontal cortex after ethanol intoxication; assay type: in vivo, rats; settings: OEA pretreatment
Procedure: as §5, with “g/kg. In a first experiment, the time-course of the neuro-inflammation was verified after 1 hour, 6 hours and 24 hours from the last feeding forced with ethanol.” for “g/kg.”
as §2, §3

[11] = tested on: TNF-α; assay: TNF-α in frontal cortex and plasma after ethanol intoxication; assay type: in vivo, rats; settings: OEA pretreatment
Procedure: as §1, §2, §4, §6

[12] = tested on: HMGB1; assay: HMGB1 expression in frontal cortex after ethanol intoxication; assay type: in vivo, rats
Procedure: as §5, with “g/kg. In a first experiment, the time-course of the neuro-inflammation was verified after 1 hour, 6 hours and 24 hours from the last feeding forced with ethanol.” for “g/kg.”
as §2, §3

[13] = tested on: corticosterone; assay: Plasma corticosterone levels; assay type: in vivo, rats
Procedure: as §7, §8, §9

[14] = tested on: MyD88; assay: MyD88 protein expression in frontal cortex after ethanol intoxication; assay type: in vivo, rats; settings: OEA pretreatment
Procedure: as §5, with “g/kg. In a first experiment, the time-course of the neuro-inflammation was verified after 1 hour, 6 hours and 24 hours from the last feeding forced with ethanol.” for “g/kg.”
as §2, §3

[15] = tested on: rats exposed to ethanol intoxication; assay: Forced swimming test during early ethanol abstinence; assay type: in vivo; settings: forced swimming test 48 hours after last ethanol administration; OEA pretreatment
Procedure: Tests were conducted to determine the effects of repeated OEA administration on depressive and anxiety behavior during early ethanol abstinence. Animals were tested in the cross-raised labyrinth 24 hours and 12 days after the alcohol abuse protocol and forced swimming test was performed 48 hours after the last administration of ethanol. [HMGB1 (High Mobility Group Box 1): high mobility group 1 box; TLR4 (Toll-Like Receptors 4): Receptors type Toll 4: MD2 (Myeloid Differentiation Protein 2): myeloid differentiation protein 2; MyD88 (Myeloid Differentiation Factor 88): myeloid differentiation factor 88; NF-kB (Nuclear Farctor kB): nuclear transcription factor kappa B (p65 subunit); IkB: inhibitory protein IkappaB; TNF-α (Tumor Necrosis Factor α): tumor necrosis factor alpha; IL-1β (Interleukin β): 1interleukin-1 beta; MCP-1 (Monocyte Chemoattractant Protein 1): monocyte chemotactic protein 1; INOS (inducible Nitric Oxide Synthase): inducible nitric oxide synthase; COX-2 (Cyclooxygenase 2): cyclooxygenase 2; 4-HNE (4-hydroxynonenal): 4-hydroxynonenal]. In this third experiment (n=25), the treatment with ethanol intoxication and OEA pretreatment applied in experiment 2 was repeated, and the animals were submitted to the maze test in a high cross 24 hours and 12 days after the last forced ethanol administration and the forced swimming test 48 hours after the ethanol intoxication protocol. Behavioral tests were studied. The forced swimming test was performed on the rats two days after the last forced feed with ethanol and the specific behaviors were recorded with a digital video camera for 5 minutes. These same rats were also tested by the high cross maze test equipped with infrared light (Panlab, Barcelona, Spain) 1 and 12 days after the last forced feed with ethanol, allowing the animals to freely explore the labyrinth during 5 minutes. Tests were performed 3 hours after onset of the dark phase.

[16] = tested on: iNOS; assay: iNOS mRNA expression in frontal cortex; assay type: in vivo, rats; settings: OEA pretreatment
Procedure: as §5, §2, §4

[17] = tested on: MCP-1; assay: MCP-1 levels in frontal cortex after ethanol intoxication; assay type: in vivo, rats; settings: OEA pretreatment
Procedure: as §5, §2
Levels of HMGB1, pro-inflammatory cytokines (TNF-α, IL-1β) and chemokines MCP-1 were studied. Levels of HMGB1, TNF-α, IL-1β and soluble MCP-1 were determined by Enzyme-linked immunosorbent assay (ELISA) 30 (Elabscience Biotechnology Co., Ltd., China, for HMGB-1; RayBiotech®, GA, USA, for the TNF-α, IL-1β and MCP-1). […]

[18] = tested on: caspase-8; assay: Caspase-8 mRNA expression in frontal cortex; assay type: in vivo, rats; settings: OEA pretreatment
Procedure: as §5, §2, §4

## CCCCCCCC/C=C\CCCCCCCC(=O)NCCO [OEA, oleoylethanolamide]
[1]; 24 hours after ethanol intoxication
  anxiety-type behavior: percentage of entries and time in the open arms: clear trend showing a clear anxiolytic effect of OEA in the animals treated with ethanol and control, the Dunn post hoc test found no significant effects in multiple comparisons
[1]; 12 days after ethanol intoxication
  anxiety-type behavior: percentage of entrances and time of permanence in the open arms: not significant
[2]
  alcohol-induced overexpression of caspase-3 mRNA: not able to prevent this effect
  ethanol-induced increase in caspase-3 activity: reversed
  ethanol-induced overexpression of caspase-3 protein: prevented
[3]
  ethanol-induced overexpression of TLR4 mRNA: able to reduce the overexpression
  ethanol-induced overexpression of TLR4 protein: able to reduce the overexpression
[4]; frontal cortex nuclear extracts, OEA pretreatment
  increase in nuclear activity of p65 induced by ethanol: counteracted
[4]; frontal cortex, OEA pre-administration
  increase in p65 mRNA levels induced by ethanol: partially prevented
[5]; frontal cortex
  ethanol-induced increase in IL-1β protein levels: prevented
  ethanol-induced increase of IL-1β mRNA expression: did not prevent this effect
[5]; plasma
  ethanol-induced increase of IL-1β: prevented
[6]
  increase in IκBα mRNA levels induced by ethanol: did not counteract
  increase in IκBα protein expression induced by ethanol: did not counteract
[7]
  COX-2 mRNA levels: reduced COX-2 mRNA levels with ethanol, but not in the animals treated with vehicle
[8]
  HNE formation (lipid peroxidation): decreased the HNE formation
[9]
  LPS plasma levels: 44 % increase over control
[10]
  increase in MD2 protein induced by ethanol: inhibited the increase
[11]; frontal cortex
  ethanol-induced increase of TNF-α mRNA expression: did not prevent this effect
  ethanol-induced increase of TNF-α protein levels: not avoided
[11]; plasma
  ethanol-induced increase of TNF-α: partially prevented
[12]; OEA 5 mg/kg ip 10 min before each ethanol dose
  increase in HMGB1 induced by ethanol intoxication: prevented
[12]; OEA pretreatment + ethanol
  nuclear/cytoplasmic HMGB1 ratio: 1.48
[13]; animals exposed to ethanol intoxication, OEA pretreatment
  ethanol-induced increase in plasma corticosterone levels: completely prevented
[13]; control animals
  plasma corticosterone levels: did not modify
[14]
  increase in ethanol-induced MyD88 protein expression: inhibited the increase
[15]
  alcohol-induced depressive symptoms: able to prevent alcohol-induced depressive symptoms
  immobility: normalizing
  latency: normalizing
  swimming: normalizing
[16]
  ethanol-induced increase in the expression of iNOS mRNA: completely prevented
[17]
  ethanol-induced increase of MCP-1 levels: prevented this effect
[18]
  ethanol-induced overexpression of caspase-8 mRNA: reversed this effect
